Test results from patent US20040044006A1, “Methods of use of quinolone compounds against pneumococcal and haemophilus bacteria” (priority 1999, published 2004).
≈ marks a conversion by molar mass, not a printed value. Like-named read-outs stand apart in the source and are kept apart here.

Columns and labels:
[1] = tested on: penicillin susceptible and resistant pneumococcal strains (2 quinolone resistant); experiment: Time-kill testing of 12 pneumococcal strains; format: cell-based, Streptococcus pneumoniae; conditions: 12 penicillin susceptible and resistant pneumococcal strains; 24 h; bactericidal = ≧3 log10 cfu/ml (99.9%) reduction
Experimental: For time-kill studies, glass tubes containing 5 ml cation-adjusted Mueller-Hinton broth (Difco)+5% lysed horse blood with doubling antibiotic concentrations were inoculated with 5×10^5 to 5×10^6 cfu/ml and incubated at 35° C. in a shaking water bath. […] Growth controls with inoculum but no antibiotic were included with each experiment (Pankuch, et al., Antimicrob. Agents Chemother. 38:2065-2072, 1994; Pankuch, et al., Antimicrob. Agents Chemother. 40:1653-1656, 1996).
Lysed horse blood was prepared as described previously. The bacterial inoculum was prepared by diluting a 16 h broth (medium as above) culture in the same medium. Dilutions required to obtain the correct inoculum (5×10^5-5×10^6 cfu/ml) were determined by prior viability studies using each strain (Pankuch, et al., Antimicrob. Agents Chemother. 38:2065-2072, 1994; Pankuch, et al., Antimicrob. Agents Chemother. 40: 1653-1656, 1996).
To inoculate each tube of serially diluted antibiotic, 50 μl of diluted inoculum was delivered by pipette beneath the surface of the broth. Tubes were then vortexed and plated for viability counts within 10 min (approximately 0.2 h). The original inoculum was determined by using the untreated growth control. Only tubes containing an initial inoculum within the range of 5×10^5 to 5×10^6 cfu/ml were acceptable (Pankuch, et al., Antimicrob. Agents Chemother. 38:2065-2072, 1994; Pankuch, et al., Antimicrob. Agents Chemother. 40:1653-1656, 1996).
Viability counts of antibiotic-containing suspensions were performed by plating ten-fold dilutions of 0.1 ml aliquots from each tube in sterile Mueller-t-Hinton broth onto trypticase soy agar 5% sheep blood agar plates (BBL). Recovery plates were incubated for up to 72 h. Colony Counts were performed on plates yielding 30-300 colonies. The lower limit of sensitivity of colony counts was 300 cfu/ml (Pankuch, et al., Antimicrob. Agents Chemother. 38:2065-2072, 1994; Pankuch, et al., Antimicrob. Agents Chemother. 40:1653-1656, 1996).
Time-kill assays were analysed by determining the number of strains which yielded a log10 cfu/ml of −1, −2 and −3 at 0, 3, 6, 12 and 24 h, compared to counts at time 0 h. Antimicrobials were considered bactericidal at the lowest concentration that reduced the original inoculum by ≧3 log10 cfu/ml (99.9%) at each of the time periods, and bacteriostatic if the inoculum was reduced by 0-3 log10 cfu/ml. […] The problem of bacterial carryover was addressed as described previously. For macrolide time-kill testing, only strains with MICs≦4.0 μg/ml were tested (Pankuch, et al., Antimicrob. Agents Chemother. 38:2065-9072, 1994; Pankuch, et al., Antimicrob. Agents Chemother. 40:1653-1656, 1996).

[2] = tested on: pneumococci (5 quinolone susceptible and 1 resistant strains); experiment: Post-antibiotic effect (PAE) testing; format: cell-based, Streptococcus pneumoniae; conditions: 10×MIC; range over strains
Experimental: The post-antibiotic effect (PAE) (Craig, et al., V. Lorian (ed.) Antibiotics in Laboratory Medicine, Williams and Wilkins, Baltimore, pages 296-399, 1996) was determined by the viable plate count method, using Mueller-Hinton broth (MHB) supplemented with 5% lysed horse blood when testing pneumococci. […] Additionally, the one quinolone resistant strain was exposed at quinolone concentrations 5×MIC. Tubes containing 5 ml broth with antibiotic were inoculated with approximately 5×10^6 cfu/ml. Growth controls with inoculum but no antibiotic were included with each experiment. Tubes were placed in a shaking water bath at 35° C. for 1 h. At the end of the exposure period, cultures were diluted 1:1000 to remove antibiotic.
Viability counts were determined before exposure and immediately after dilution (0 h), and then every 2 h until tube turbidity reached a #1 McFarland standard. Inocula were prepared by suspending growth from an overnight blood agar plate in broth. The broth was incubated at 35° C. for 2-4 h in a shaking water bath until turbidity matched a #1 McFarland standard, and checked for viability by plate counts (Spangler, et al., Antimicrob. Agents Chemother. 41:2173-9176, 1997; Spangler, et al., Antimicrob. Agents Chemother. 42:1253-1255, 1998).
The PAE was defined as PAE=T-C; T=time required for viability counts of an antibiotic-exposed culture to increase by 1 log10 above counts immediately after dilution; C=corresponding time for growth control. For each experiment, viability counts (log10 cfu/ml) were plotted against time, and results expressed as the mean of two separate assays±S D (Craig, et al., V. Lorian (ed), Antibiotics in Laboratory Medicine, Williams and Wilkins, Baltimore, pages 296-329, 1996).

pneumococcal strains = experiment: Microbroth dilution MICs of strains tested by time-kill and PAE; format: cell-based; conditions: Streptococcus pneumoniae, read-out: Microdilution MIC
Experimental: (§1) Agar dilution methodology was performed on 234 strains as described previously (M. R. Jacobs, Clin. Infect. Dis. 15:119-127, 1992; Jacobs, et al., Rev. Med. Microbiol. 6:77-93, 1995), using Mueller-Hinton agar (BBL Microbiology Systems, Cockeysville, Md.) supplemented with 5% sheep blood. Broth MICs for 12 strains tested by time-kill and 6 tested by PAE were performed according to NCCLS recommendations (Methods for Dilution Antimicrobial Susceptibility Tests for Bacteria that Grow Aerobically, 3rd Edition, NCCLS, Villanova, Pa.) using cation-adjusted Mueller-Hinton broth with 5% lysed defibrinated horse blood. Standard quality control strains, including Streptococcus pneumoniae ATCC 49619, were included in each run of agar and broth dilution MICs.

[3] = tested on: quinolone susceptible pneumococci (ciprofloxacin MICs ≦4.0 μg/ml); experiment: Agar dilution MICs of 207 quinolone susceptible pneumococcal strains; format: cell-based, Streptococcus pneumoniae; conditions: Streptococcus pneumoniae, agar dilution; for MIC90: read-out: MIC90; for MIC: read-out: MIC range
Experimental: All susceptible, and some intermediate and resistant strains, were recent U.S. isolates. The remainder of intermediate and resistant strains were isolated in South Africa, Spain, France, Central and Eastern Europe, and Korea. […] Additionally these strains were tested for mutations in parC, gyrA, parE, and gyrB (Pan, et al., Antimicrob. Agents Chemother. 40:2321-2326, 1996) and for efflux mechanism (Brenwald, et al., Antimicrob. Agents Chemother. 42:2032-2035, 1998). For time-kill studies, 4 penicillin susceptible, 4 intermediate and 4 resistant strains (2 quinolone resistant) were tested, while for PAE studies 5 quinolone susceptible and 1 resistant strains were studied.
as §1

[4] = strain 1 (S) penicillin susceptible
[5] = strain 2 (S) penicillin susceptible
[6] = strain 3 (S) penicillin susceptible, quinolone-resistant
[7] = strain 4 (S) penicillin susceptible, quinolone-resistant
[8] = strain 5 (I) penicillin intermediate
[9] = strain 8 (I) penicillin intermediate
[10] = strain 9 (R) penicillin resistant
[11] = strain 11 (R) penicillin resistant
[12] = strain 12 (R) penicillin resistant

Row | MIC90 ([3]; Penicillin I strains) [µg/mL] | MIC ([3]; Penicillin I strains) [µg/mL] | MIC50 ([3]; Penicillin R strains) [µg/mL] | MIC90 ([3]; Penicillin R strains) [µg/mL] | MIC ([3]; Penicillin R strains) [µg/mL] | MIC50 ([3]; Penicillin S strains) [µg/mL] | MIC90 ([3]; Penicillin S strains) [µg/mL] | MIC ([3]; Penicillin S strains) [µg/mL] | Structure (SMILES) | concentration at which bactericidal after 24 h [1] [×MIC] | PAE for non-quinolone compounds [2] [h] | MIC (pneumococcal strains; [4]) [µg/mL] | MIC (pneumococcal strains; [5]) [µg/mL] | MIC (pneumococcal strains; [6]) [µg/mL] | MIC (pneumococcal strains; [7]) [µg/mL] | MIC (pneumococcal strains; [8]) [µg/mL] | MIC (pneumococcal strains; [9]) [µg/mL] | MIC (pneumococcal strains; [10]) [µg/mL] | MIC (pneumococcal strains; strain 10 (I)) [µg/mL] | MIC (pneumococcal strains; [11]) [µg/mL] | MIC (pneumococcal strains; [12]) [µg/mL] | other results
1 | 1 (≈ 2.74 µM) | 0.016 to 4 (≈ 0.0438 to 10.9 µM) | 2 (≈ 5.47 µM) | 4 (≈ 10.9 µM) | 0.5 to 8 (≈ 1.37 to 21.9 µM) | 0.016 (≈ 0.0438 µM) | 0.06 (≈ 0.164 µM) | 0.008 to 0.25 (≈ 0.0219 to 0.684 µM) | CC1(C)S[C@@H]2[C@H](NC(=O)[C@H](N)c3ccc(O)cc3)C(=O)N2[C@H]1C(=O)O [Amoxicillin, amoxicillin] | 2 | 0.3 to 5.8 | 0.016 (≈ 0.0438 µM) | 0.016 (≈ 0.0438 µM) | 0.008 (≈ 0.0219 µM) | 0.008 (≈ 0.0219 µM) | 0.03 (≈ 0.0821 µM) | 0.06 (≈ 0.164 µM) | 1 (≈ 2.74 µM) | 1 (≈ 2.74 µM) | 2 (≈ 5.47 µM) | 2 (≈ 5.47 µM) | 
2 | 2 (≈ 4.71 µM) | 0.125 to 8 (≈ 0.295 to 18.9 µM) | 8 (≈ 18.9 µM) | 16 (≈ 37.7 µM) | 0.5 to 32 (≈ 1.18 to 75.4 µM) | 0.03 (≈ 0.0707 µM) | 0.25 (≈ 0.589 µM) | 0.008 to 2 (≈ 0.0189 to 4.71 µM) | CO/N=C(\C(=O)N[C@@H]1C(=O)N2C(C(=O)O)=C(COC(N)=O)CS[C@H]12)c1ccco1 [Cefuroxime, cefuroxime] | 4 | 0.8 to 2.9 | 0.5 (≈ 1.18 µM) | 0.25 (≈ 0.589 µM) | 0.016 (≈ 0.0377 µM) | 0.016 (≈ 0.0377 µM) | 0.5 (≈ 1.18 µM) | 0.25 (≈ 0.589 µM) | 2 (≈ 4.71 µM) | 0.5 (≈ 1.18 µM) | 4 (≈ 9.43 µM) | 2 (≈ 4.71 µM) | MIC (pneumococcal strains; strain 6 (I) penicillin intermediate): 0.5 µg/mL (≈ 1.18 µM); MIC (pneumococcal strains; strain 7 (I) penicillin intermediate): 0.5 µg/mL (≈ 1.18 µM); MIC50 ([3]; Penicillin I strains): 0.5 µg/mL (≈ 1.18 µM)
